Reference: ChEMBL document CHEMBL5143513, “Design, synthesis and biological evaluation of bisindole derivatives as anticancer agents against Tousled-like kinases” (Eur J Med Chem, 2022)
Calls of active or inactive are those of the source. The calls are words filed in the database; no cut-off is given here.

Key:
MDA-MB-231 [1] = test: Cytotoxicity against human MDA-MB-231 cells assessed as reduction in cell viability at 0.5 uM measured after 72 hrs by MTT assay; type: functional
U2OS [2] = test: Inhibition of DNA replication in PCNA positive human U2OS cells assessed as reduction in EdU level at 50 uM incubated for 4 hrs by immunofluorescence staining based EdU incorporation assay; type: functional, cell-based
[3] = target: T1, Serine/threonine-protein kinase tousled-like 2 (Homo sapiens, UniProt Q86UE8); test: Inhibition of full length FLAG/HA/Strep-tagged TLK2 (unknown origin) in human U2OS cells assessed as reduction in ASF1 phosphorylation at 16.7 uM measured after 4 hrs by Western blot analysis; type: cell-based
Target sequence in this assay (Q86UE8 whole entry, looked up): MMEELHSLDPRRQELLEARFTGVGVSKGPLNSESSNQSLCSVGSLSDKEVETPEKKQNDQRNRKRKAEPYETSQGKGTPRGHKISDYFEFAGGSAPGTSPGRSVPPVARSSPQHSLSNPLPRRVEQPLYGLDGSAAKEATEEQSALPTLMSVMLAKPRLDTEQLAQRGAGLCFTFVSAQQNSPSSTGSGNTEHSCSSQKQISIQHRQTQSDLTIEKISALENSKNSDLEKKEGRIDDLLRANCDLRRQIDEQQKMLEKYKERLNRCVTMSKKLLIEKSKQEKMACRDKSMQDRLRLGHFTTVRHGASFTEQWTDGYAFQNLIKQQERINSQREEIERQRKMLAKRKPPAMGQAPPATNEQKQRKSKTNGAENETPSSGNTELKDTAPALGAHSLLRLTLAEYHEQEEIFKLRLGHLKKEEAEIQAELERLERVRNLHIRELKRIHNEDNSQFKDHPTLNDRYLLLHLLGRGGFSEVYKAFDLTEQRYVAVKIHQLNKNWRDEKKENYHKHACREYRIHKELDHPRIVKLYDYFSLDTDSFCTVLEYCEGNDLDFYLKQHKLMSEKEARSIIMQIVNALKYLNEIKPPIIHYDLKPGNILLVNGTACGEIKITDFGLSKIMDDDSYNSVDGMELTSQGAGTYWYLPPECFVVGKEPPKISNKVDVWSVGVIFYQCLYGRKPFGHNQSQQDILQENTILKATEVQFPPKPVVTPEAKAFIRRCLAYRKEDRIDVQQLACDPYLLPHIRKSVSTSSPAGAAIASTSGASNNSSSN

U2OS [4] = test: Effect on cell cycle progression in human U2OS cells assessed as accumulation of cells at early stage of S phase measured after 8 hrs by PI staining based flow cytometric analysis; type: functional
MDA-MB-231 [5] = test: Induction of apoptosis in human MDA-MB-231 cells assessed as increase in caspase-3 level at 4 uM incubated for 72 hrs by gel electrophoresis method; type: functional, cell-based
[6] = target: T1, Serine/threonine-protein kinase tousled-like 2; test: Inhibition of full length FLAG/HA/Strep-tagged TLK2 (unknown origin) transfected in HEK293T cells assessed as reduction in ASF1a phosphorylation at S166 residue at 5 uM by Western blot analysis; type: cell-based
Target sequence in this assay (Q86UE8 whole entry, looked up): as above

MDA-MB-231 [7] = test: Induction of DNA damage in human MDA-MB-231 cells at 10 uM incubated for 4 hrs by gel electrophoresis method; type: functional, cell-based
MDA-MB-231 [8] = test: Induction of apoptosis in human MDA-MB-231 cells assessed as decrease in MCL-1 level at 4 uM incubated for 72 hrs by gel electrophoresis method; type: functional, cell-based
[9] = Cytotoxicity against human MRC5 cells assessed as reduction in cell viability incubated for 72 hrs by MTT assay; type: toxicity, cell-based
MDA-MB-231 [10] = test: Induction of cell cycle arrest in human MDA-MB-231 cells assessed as increase in cells at sub G1 phase at 4 uM measured after 72 hrs by PI staining based flow cytometric analysis (reference value: 0.8%); type: functional
MDA-MB-231 [11] = test: Induction of cell cycle arrest in human MDA-MB-231 cells assessed as increase in cells at sub G1 phase at 2 uM measured after 72 hrs by PI staining based flow cytometric analysis (reference value: 0.8%); type: functional
[12] = target: T1, Serine/threonine-protein kinase tousled-like 2; test: Binding affinity to full length FLAG/HA/Strep-tagged TLK2 (388 to 772 residues) (unknown origin) transfected in HEK293T cells by Alexa Fluor 647 staining based FRET assay; type: cell-based
Target sequence in this assay (Q86UE8 whole entry): as the sequence (Q86UE8 whole entry, looked up) above

MDA-MB-231 [13] = test: Induction of apoptosis in human MDA-MB-231 cells assessed as decrease in Bcl-xL level at 4 uM incubated for 72 hrs by gel electrophoresis method; type: functional, cell-based
A549 = test: Cytotoxicity against human A549 cells assessed as reduction in cell viability incubated for 72 hrs by MTT assay; type: functional, cell-based; details: A549, 72 h
[14] = Cytotoxicity against human IMR-90 cells assessed as reduction in cell viability incubated for 72 hrs by MTT assay; type: toxicity, cell-based
MDA-MB-231 [15] = test: Cytotoxicity against human MDA-MB-231 cells assessed as reduction in cell viability incubated for 72 hrs by MTT assay; type: functional, cell-based; details: MDA-MB-231, 72 h
MDA-MB-231 [16] = test: Antiproliferative activity against human MDA-MB-231 cells assessed as reduction in cell growth at 1 uM by trypan blue assay; type: functional, cell-based
[17] = target: Histone chaperone ASF1A (Homo sapiens) (UniProt Q9Y294); test: Inhibition of ASF1a phosphorylation at S166 residue in human MDA-MB-231 cells at 10 uM incubated for 4 hrs by Western blot analysis; type: cell-based
Chain of Histone chaperone ASF1A (Homo sapiens) (Q9Y294 whole entry): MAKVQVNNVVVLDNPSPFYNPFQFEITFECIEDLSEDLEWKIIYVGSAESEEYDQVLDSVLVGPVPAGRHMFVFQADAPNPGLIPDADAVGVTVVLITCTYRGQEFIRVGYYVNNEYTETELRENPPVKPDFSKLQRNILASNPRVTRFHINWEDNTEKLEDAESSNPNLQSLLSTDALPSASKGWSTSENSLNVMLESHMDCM

MDA-MB-231 [18] = test: Antiproliferative activity against human MDA-MB-231 cells assessed as increase in cell death rate at 1 uM by trypan blue assay; type: functional, cell-based
MDA-MB-231 [19] = test: Antiproliferative activity against human MDA-MB-231 cells assessed as reduction in cell growth at 0.25 uM by trypan blue assay; type: functional, cell-based
HCT-116 = test: Cytotoxicity against human HCT-116 cells assessed as reduction in cell viability incubated for 72 hrs by MTT assay; type: functional, cell-based; details: HCT-116, 72 h
MDA-MB-231 [20] = test: Induction of apoptosis in human MDA-MB-231 cells assessed as increase in caspase-9 level at 4 uM incubated for 72 hrs by gel electrophoresis method; type: functional, cell-based
MDA-MB-231 [21] = test: Effect on cell cycle progression in human MDA-MB-231 cells assessed as accumulation of cells at S phase at 2 uM by PI staining based flow cytometric analysis; type: functional
[22] = target: T1, Serine/threonine-protein kinase tousled-like 2; test: Inhibition of full length FLAG/HA/Strep-tagged TLK2 (unknown origin) transfected in HEK293T cells at 50 uM using GST-ASF1 as substrate preincubated for 15 mins followed by substrate addition and measured after 15 mins in presence of ATP by Western blot analysis; details: time 30.0 min
Target sequence in this assay (Q86UE8 whole entry, looked up): as the sequence (Q86UE8 whole entry, looked up) above

U2OS [23] = test: Inhibition of DNA replication in PCNA positive human U2OS cells assessed as reduction in EdU level at 2.5 to 20 uM incubated for 4 hrs by immunofluorescence staining based EdU incorporation assay; type: functional, cell-based; details: dose 2.5-20 µM
U2OS [24] = test: Induction of DNA damage in human U2OS cells assessed as increase in KAP1 phosphorylation at S824 residue at 5 to 10 uM incubated for 4 hrs by Western blot analysis; type: functional, cell-based; details: dose 5-10 µM
U2OS [25] = test: Induction of DNA damage in human U2OS cells assessed as increase in RPA2 phosphorylation at S4/S8 residue at 5 to 10 uM incubated for 4 hrs by Western blot analysis; type: functional, cell-based; details: dose 5-10 µM
[26] = target: T1, Serine/threonine-protein kinase tousled-like 2; test: Inhibition of full length FLAG/HA/Strep-tagged TLK2 (unknown origin) in human U2OS cells assessed as ASF1 phosphorylation by measuring decrease in band shift at 16.7 uM measured after 4 hrs by Western blot analysis; type: cell-based
Target sequence in this assay (Q86UE8 whole entry, looked up): as above

U2OS [27] = test: Induction of DNA damage in human U2OS cells assessed as increase in CHK2 phosphorylation at T68 residue at 5 to 10 uM incubated for 4 hrs by Western blot analysis; type: functional, cell-based; details: dose 5-10 µM
U2OS [28] = test: Induction of DNA damage in human U2OS cells assessed as increase in CHK1 phosphorylation at S345 residue at 2.5 to 5 uM incubated for 4 hrs by Western blot analysis; type: functional, cell-based; details: dose 2.5-5 µM
U2OS [29] = test: Effect on cell cycle progression in human U2OS cells assessed as accumulation of cells at S phase measured after 8 hrs by PI staining based flow cytometric analysis; type: functional; details: dose 2.5-20 µM, DDE = dose-dependent effect
[30] = target: T1, Serine/threonine-protein kinase tousled-like 2; test: Inhibition of full length FLAG/HA/Strep-tagged TLK2 (unknown origin) transfected in HEK293T cells assessed as reduction in TLK mediated ASF1a phosphorylation at 50 uM by Western blot analysis; type: cell-based
Target sequence in this assay (Q86UE8 whole entry, looked up): as above

[31] = target: T1, Serine/threonine-protein kinase tousled-like 2; test: Inhibition of full length FLAG/HA/Strep-tagged TLK2 (unknown origin) in human MDA-MB-231 cells assessed as reduction in ASF1 phosphorylation at 16.7 uM measured after 4 hrs by Western blot analysis; type: cell-based
Target sequence in this assay (Q86UE8 whole entry, looked up): as above

U2OS [32] = test: Induction of DNA damage in PCNA positive human U2OS cells assessed as increase in H2AX phosphorylation at S139 residue in S phase by measuring fluorescence intensity at 10 uM incubated for 4 hrs by immunofluorescence microscopy; type: functional, cell-based

`CN1CCCCC1CCO/N=C1/C(=C2/C(=O)Nc3cc(F)ccc32)Nc2ccccc21` (centres undefined) gave an Activity (MDA-MB-231 [1]) of under 30%.
In the case of `NC(=O)NO`, the inhibition (U2OS [2]) is reported as “Active”, the inhibition [3] is reported as “Active” and the Activity (U2OS [4]) is reported as “Active”.
For `CN1CCCC1CCO/N=C1/C(=C2/C(=O)Nc3ccccc32)Nc2ccccc21` (centres undefined), the Activity (MDA-MB-231 [5]) was “Active”, the inhibition [6] was “Active” and the Activity (MDA-MB-231 [7]) was “Active”. The Activity (MDA-MB-231 [8]) was “Active”, the IC50 at 72 h [9] was over 2000 nM and the Activity (MDA-MB-231 [10]) was 25.6%. For the same molecule, the Activity (MDA-MB-231 [11]) was 15.4%, the IC50 [12] was 18.6 nM and the Activity (MDA-MB-231 [13]) was “Active”. It also gave an IC50 (A549) of 260 nM, an IC50 at 72 h [14] of over 2000 nM and an Activity (MDA-MB-231 [1]) of 40%. For the same molecule, the IC50 (MDA-MB-231 [15]) was 250 nM, the Activity (MDA-MB-231 [16]) was “Active” and the “inhibition of ASF1a S166 phosphorylation (active/inactive call)” value (“inhibition … (active/inactive call)” for short) [17] was “Active”. The Activity (MDA-MB-231 [18]) was “Active”, the Activity (MDA-MB-231 [19]) was “Active” and the IC50 (HCT-116) was 370 nM. For the same molecule, the Activity (MDA-MB-231 [20]) was “Active” and the Activity (MDA-MB-231 [21]) was “Active”.
In the case of `CN(C)CCCn1cc(C2=C(c3c[nH]c4ccccc34)C(=O)NC2=O)c2ccccc21`, the inhibition [22] is reported as “Active”.
For `CN1CCCCC1CCO/N=C1/C(=C2/C(=O)Nc3ccc(F)cc32)Nc2ccccc21` (centres undefined), the inhibition [6] was “Active”, the IC50 at 72 h [9] was over 2000 nM and the IC50 (A549) was 600 nM. It also gave an IC50 at 72 h [14] of over 2000 nM, an Activity (MDA-MB-231 [1]) of 40% and an IC50 (MDA-MB-231 [15]) of 530 nM. The “inhibition … (active/inactive call)” value [17] was “Active” and the IC50 (HCT-116) was 600 nM.
For `CN[C@@H]1C[C@H]2O[C@@](C)([C@@H]1OC)n1c3ccccc3c3c4c(c5c6ccccc6n2c5c31)C(=O)NC4`, the inhibition [22] was “Active”.
For `CN(C)CCCO/N=C1/C(=C2/C(=O)Nc3ccccc32)Nc2ccccc21`, the inhibition [6] was “Active”, the Activity (MDA-MB-231 [7]) was “Active” and the IC50 at 72 h [9] was over 2000 nM. For the same molecule, the IC50 (A549) was 610 nM, the IC50 at 72 h [14] was over 2000 nM and the Activity (MDA-MB-231 [1]) was 40%. The IC50 (MDA-MB-231 [15]) was 440 nM, the “inhibition … (active/inactive call)” value [17] was “Active” and the IC50 (HCT-116) was 710 nM. The Activity (MDA-MB-231 [21]) was “Active”.
For `CN1CCCCC1CCO/N=C1/C(=C2/C(=O)Nc3cc(Cl)ccc32)Nc2ccccc21` (centres undefined), the “inhibition … (active/inactive call)” value [17] was “Active”.
In the case of `CN1CCC(O/N=C2/C(=C3/C(=O)Nc4ccccc43)Nc3ccccc32)CC1`, the inhibition [6] is reported as “Active”, the Activity (MDA-MB-231 [7]) is reported as “Active” and the IC50 at 72 h [9] is reported as over 2000 nM. The IC50 [12] was 33.1 nM, the IC50 (A549) was 190 nM and the IC50 at 72 h [14] was over 2000 nM. The Activity (MDA-MB-231 [1]) was 40%, the IC50 (MDA-MB-231 [15]) was 250 nM and the “inhibition … (active/inactive call)” value [17] was “Active”. The Activity (MDA-MB-231 [19]) was “Active”, the IC50 (HCT-116) was 390 nM and the Activity (MDA-MB-231 [21]) was “Active”.
With `CN1CCCCC1CCO/N=C1/C(=C2/C(=O)Nc3ccccc32)Nc2ccccc21` (centres undefined) the inhibition (U2OS [23]) was “Active”, the IC50 at 72 h [9] was over 2000 nM and the IC50 [12] was 163 nM. For the same molecule, the Activity (U2OS [24]) was “Active”, the IC50 (A549) was 1210 nM and the Activity (U2OS [25]) was “Active”. The inhibition [26] was “Active”, the IC50 at 72 h [14] was over 2000 nM and the Activity (U2OS [27]) was “Active”. For the same molecule, the Activity (MDA-MB-231 [1]) was under 30%, the IC50 (MDA-MB-231 [15]) was 1170 nM and the Activity (U2OS [28]) was “Active”. For the same molecule, the Activity (U2OS [29]) was “Dde”, the inhibition [30] was “Active” and the IC50 (HCT-116) was 1280 nM. The inhibition [31] was “Active” and the Activity (U2OS [32]) was “Active”.
For `CN1CCCCC1CCO/N=C1/C(=C2/C(=O)Nc3ccc([N+](=O)[O-])cc32)Nc2ccccc21` (centres undefined), the inhibition [6] was “Active”, the Activity (MDA-MB-231 [1]) was 40% and the “inhibition … (active/inactive call)” value [17] was “Active”.
In the case of `COc1ccc2c(c1)c(C1=C(c3c[nH]c4ccccc34)C(=O)NC1=O)cn2CCCN(C)C`, the inhibition [22] is reported as “Active”.
In the case of `CN1CCCCC1CCO/N=C1/C(=C2/C(=O)Nc3ccccc32)Nc2ccc(F)cc21` (centres undefined), the Activity (MDA-MB-231 [1]) is reported as under 30%.
